Reference: patent US20170150719A1, “FUNGICIDAL PYRAZOLES AND THEIR MIXTURES” (E I DU PONT DE NEMOURS AND COMPANY, priority 2010, published 2017)
Marks after values point to notes of the source that are not given here.

Experiments:
[1] = system: Puccinia recondita f. sp. tritici; experiment: Test H: wheat leaf rust, preventive spray on wheat seedlings, visual disease rating; conditions: for Test H rating (% disease control): preventive spray, rating without asterisk; for Test H rating (disease control): sprayed the day before inoculation
[2] = system: Blumeria graminis f. sp. tritici; experiment: Test I: wheat powdery mildew, preventive spray on wheat seedlings, visual disease rating; conditions: for Test I rating (% disease control): preventive spray, rating without asterisk
[3] = system: Botrytis cinerea; experiment: Test A: tomato Botrytis, preventive spray on tomato seedlings, visual disease rating; conditions: for Test A rating (% disease control): preventive spray, 0 = no control relative to controls, rating without asterisk
Description: (§2) General protocol for preparing test suspensions for Tests A-I: the test compounds were first dissolved in acetone in an amount equal to 3% of the final volume and then suspended at the desired concentration (in ppm) in acetone and purified water (50/50 mix by volume) containing 250 ppm of the surfactant Trem® 014 (polyhydric alcohol esters). The resulting test suspensions were then used in Tests A-I. Each test was conducted in triplicate, and the results were averaged. Spraying a 200 ppm test suspension to the point of run-off on the test plants was the equivalent of a rate of about 800 g/ha. Unless otherwise indicated, the rating values indicate a 200 ppm test suspension was used. (An asterisk “*” next to the rating value indicates a 40 ppm test suspension was used.)
The test suspension was sprayed to the point of run-off on tomato seedlings. The following day the seedlings were inoculated with a spore suspension of Botrytis cinerea (the causal agent of tomato Botrytis) and incubated in saturated atmosphere at 20° C. for 48 h, and then moved to a growth chamber at 24° C. for 3 additional days, after which time visual disease ratings were made.

[4] = system: Puccinia recondita f. sp. tritici; experiment: Test G: wheat leaf rust, spray after inoculation (curative) on wheat seedlings, visual disease rating; type: in vivo; conditions: for Test G rating (% disease control): spray after inoculation, rating without asterisk
Description: (§1) A hyphen (-) indicates no test results.

[5] = system: Septoria nodorum; experiment: Test E: Septoria glume blotch, preventive spray on wheat seedlings, visual disease rating; conditions: for Test E rating (% disease control): Septoria glume blotch on wheat, preventive spray, rating without asterisk
[6] = system: Septoria tritici; experiment: Test F: wheat leaf blotch, preventive spray on wheat seedlings, visual disease rating; type: in vivo; design: Test F rating (disease control), value marked *: concentration or dose not given beside the values; conditions: for Test F rating (% disease control): preventive spray, rating without asterisk
Description: as §1

[7] = system: Alternaria solani; experiment: Test B: tomato early blight, preventive spray on tomato seedlings, visual disease rating; conditions: for Test B rating (% disease control): preventive spray, rating without asterisk; for Test B rating (% disease control) / Test B rating (disease control): 100 = 100% disease control; for Test B rating (disease control): 0 = no disease control relative to the controls
Description: as §2
The test suspension was sprayed to the point of run-off on tomato seedlings. The following day the seedlings were inoculated with a spore suspension of Alternaria solani (the causal agent of tomato early blight) and incubated in a saturated atmosphere at 27° C. for 48 h, and then moved to a growth chamber at 20° C. for 5 days, after which time visual disease ratings were made.

[8] = wheat leaf rust, 100 = 100% disease control
[9] = wheat powdery mildew, 100 = 100% disease control
[10] = tomato Botrytis, 100 = 100% disease control
[11] = wheat leaf rust, 100 = 100% disease control, 0 = no disease control
[12] = wheat powdery mildew, 100 = 100% disease control, 0 = no disease control relative to the controls
[13] = tomato Botrytis, 100 = 100% disease control, 0 = no disease control relative to the controls
[14] = sprayed after inoculation, 100 = 100% disease control, 0 = no disease control
[15] = Septoria glume blotch, 100 = 100% disease control, 0 = no disease control relative to the controls
[16] = 100 = 100% disease control, 0 = no disease control relative to the controls

CCOc1ccc(-c2c(C)nn(C)c2Nc2c(F)cc(Cl)cc2Cl)c(Cl)c1 [compound 202]
Test H rating (% disease control) [1, 8]: 92% | Test I rating (% disease control) [2, 9]: 95% | Test A rating (% disease control) [3, 10]: 99% | Test G rating (% disease control) ([4]; 100 = 100% disease control): 35% | Test E rating (% disease control) ([5]; 100 = 100% disease control): 0% | Test F rating (% disease control) ([6]; 100 = 100% disease control): 100% | Test B rating (% disease control) ([7]; tomato early blight): 77%

Cc1nn(C)c(Nc2c(Cl)cc(Br)cc2Cl)c1-c1ccc(F)cc1F [compound 155]
Test H rating (disease control) [1, 11]: 97% | Test I rating (disease control) [2, 12]: 99% | Test A rating (disease control) [3, 13]: 100% | Test G rating (disease control) [4, 14]: 94% | Test E rating (disease control) [5, 15]: 0% | Test F rating (disease control) [6, 16]: 100% | Test B rating (disease control) ([7]; tomato early blight): 0%

COc1ccc(-c2c(C)nn(C)c2Nc2c(F)cc(I)cc2F)c(Cl)c1 [compound 220]
Test H rating (% disease control) [1, 8]: 97% | Test I rating (% disease control) [2, 9]: 96% | Test A rating (% disease control) [3, 10]: 100% | Test G rating (% disease control) ([4]; 100 = 100% disease control): 0% | Test E rating (% disease control) ([5]; 100 = 100% disease control): 73% | Test F rating (% disease control) ([6]; 100 = 100% disease control): 100% | Test B rating (% disease control) ([7]; tomato early blight): 69%

Cc1nn(C)c(Nc2c(F)cc(Br)cc2F)c1-c1ccc(F)cc1Br [compound 163]
Test H rating (disease control), value marked * ([1]; wheat leaf rust, preventive, rating marked with asterisk (*), not explained in the text shown): 100* % | Test I rating (disease control), value marked * ([2]; wheat powdery mildew, rating marked with asterisk (*), not explained in the text shown): 100* % | Test A rating (disease control), value marked * ([3]; tomato Botrytis, rating marked with asterisk (*), other test condition, not explained in the text shown): 100* % | Test G rating (disease control), value marked * ([4]; sprayed after inoculation, rating marked with asterisk (*), not explained in the text shown): 91* % | Test E rating (disease control), value marked * ([5]; Septoria glume blotch, rating marked with asterisk (*), other test condition, not explained in the text shown): 60* % | Test F rating (disease control), value marked * ([6]; rating marked with asterisk (*), other test condition, not explained in the text shown): 100* % | Test B rating (disease control), value marked * ([7]; tomato early blight, rating marked with asterisk (*), other test condition, not explained in the text shown): 77* %

COc1cc(F)c(-c2c(C)nn(C)c2Nc2c(F)cc(C#N)cc2F)c(F)c1 [compound 20]
Test H rating (disease control) [1, 11]: 68% | Test I rating (disease control) [2, 12]: 13% | Test A rating (disease control) [3, 13]: 100% | Test G rating (disease control) [4, 14]: 0% | Test E rating (disease control) [5, 15]: 40% | Test F rating (disease control) [6, 16]: 99% | Test B rating (disease control) ([7]; tomato early blight): 100%

Cc1nn(C)c(Nc2c(F)cc(Cl)cc2F)c1-c1ccc(Cl)cc1F [compound 230]
Test H rating (% disease control) [1, 8]: 94% | Test I rating (% disease control) [2, 9]: 95% | Test A rating (% disease control) [3, 10]: 40% | Test G rating (% disease control) ([4]; 100 = 100% disease control): 0% | Test E rating (% disease control) ([5]; 100 = 100% disease control): 0% | Test F rating (% disease control) ([6]; 100 = 100% disease control): 100% | Test B rating (% disease control) ([7]; tomato early blight): 0%

COc1cc(F)c(Nc2c(-c3c(F)cccc3F)c(C)nn2C)c(F)c1 [compound 72]
Test H rating (disease control) [1, 11]: 97% | Test I rating (disease control) [2, 12]: 98% | Test A rating (disease control) [3, 13]: 100% | Test G rating (disease control) [4, 14]: 0% | Test E rating (disease control) [5, 15]: 0% | Test F rating (disease control) [6, 16]: 100% | Test B rating (disease control) ([7]; tomato early blight): 99%

Cc1nn(C)c(Nc2ccc(Br)cc2Br)c1-c1ccc(F)cc1F [compound 184]
Test H rating (% disease control) [1, 8]: 98% | Test I rating (% disease control) [2, 9]: 100% | Test A rating (% disease control) [3, 10]: 100% | Test G rating (% disease control) ([4]; 100 = 100% disease control): 0% | Test E rating (% disease control) ([5]; 100 = 100% disease control): 60% | Test F rating (% disease control) ([6]; 100 = 100% disease control): 100% | Test B rating (% disease control) ([7]; tomato early blight): 58%

Cc1nn(C)c(Nc2c(F)cc(F)cc2Br)c1-c1ccc(F)cc1Cl [Compound 144, N-(2-bromo-4,6-difluorophenyl)-4-(2-chloro-4-fluorophenyl)-1,3-dimethyl-1H-pyrazol-5-amine]
pest or weed control at 200 µg/mL ([1]; read-out: Test H rating (disease control), wheat leaf rust, sprayed the day before inoculation, 100 = 100% disease control, 0 = no disease control): 100% | pest or weed control at 200 µg/mL ([2]; Blumeria graminis, in Triticum aestivum, read-out: Test I rating (disease control), wheat powdery mildew, 100 = 100% disease control, 0 = no disease control relative to the controls): 100% | pest or weed control at 200 µg/mL ([3]; Botrytis cinerea, in Solanum lycopersicum, read-out: Test A rating (disease control), tomato Botrytis, 100 = 100% disease control, 0 = no disease control relative to the controls): 100% | pest or weed control at 200 µg/mL [4, 14]: 100% | pest or weed control at 200 µg/mL ([5]; Parastagonospora nodorum, in Triticum aestivum, read-out: Test E rating (disease control), Septoria glume blotch, 100 = 100% disease control, 0 = no disease control relative to the controls): 100% | pest or weed control at 200 µg/mL ([6]; Zymoseptoria tritici, 100 = 100% disease control, 0 = no disease control relative to the controls): 100% | pest or weed control at 200 µg/mL ([7]; Alternaria solani, in Solanum lycopersicum, read-out: Test B rating (disease control)): 99%

Cc1nn(C)c(Nc2ccc(Cl)cc2Cl)c1-c1ccc(F)cc1F [compound 67]
Test H rating (disease control) [1, 11]: 97% | Test I rating (disease control) [2, 12]: 100% | Test A rating (disease control) [3, 13]: 100% | Test G rating (disease control) [4, 14]: 0% | Test E rating (disease control) [5, 15]: 0% | Test F rating (disease control) [6, 16]: 100% | Test B rating (disease control) ([7]; tomato early blight): 64%
